According to PMC9448818 (Translational Psychiatry, 2022):

Assay: Dose-adjusted serum concentrations of drug and metabolite (LC-MS/MS) by CYP2C19 and CYP2D6 metabolizer group
Format: in vivo, human
Conditions: for B, ARI concentrations in serum, CYP2D6 IM+PM / B, DHA concentrations in serum, CYP2D6 IM+PM: vs NM, dose-adjusted
Description: The 16-week study protocol consisted of two phases following screening and baseline visits. […] Blood samples were collected on Weeks 2, 10, and 16 to measure medication levels and on Week 4 for pharmacogenetic analyses. The methods used for the quantification of serum levels of drug and metabolite concentrations is described in the Supplementary Methods.
Serum concentrations were adjusted for dosage (i.e., ng/mL/mg). Sampling time (i.e., hours since the last dose) was entered as a covariate in the regression models to account for when the medication was taken.
The CYP2C19 metabolizer group was not included as a fixed effect covariate, as CYP2C19 is not known to be involved in the metabolism of ARI. […]
Collection of blood samples and quantification of serum drug and metabolite concentrations Participants self-reported the time at which the last dosage of the study medication was taken during the collection of the blood samples. […]
major metabolites, (S-DCT) and (DHA), were performed at the CAMH Clinical Laboratory using LC-MS/MS technology. Briefly, a mix of deuterated internal standards (Cerilliant) was added to 100 µL of each serum specimen, calibrator (Cerilliant) and quality control (MassCheck Antidepressants/Neuroleptics, Level 1 and Level 2). Proteins were precipitated with 300 µL of 9:1 Acetonitrile:Methanol (Sigma-Aldrich) followed by 5 min centrifugation at 9000 rpm. 25 µL of each supernatant was diluted with 200 µL of 0.1% Formic acid (Sigma-Aldrich) and then analyzed on the LC-MS/MS platform consisting of ThermoFisher TSQ Quantum Ultra mass spectrometer coupled with ThermoFisher Surveyor LC pump and HTC PAL autosampler fitted with a Kinetex F5 2.6 µm, 100 x 2.1 mm column (Phenomenex). Six minute gradient elution with 0.1% Formic Acid (mobile phase A) and Acetonitrile (mobile phase B) was applied. Collision energies ranged from 14 to […]
calibration curve ranging from 10 to 1000 ng/mL for each analyte.
Vendor nominal means for quality controls were used to assess the assay accuracy for each of the four analytes […]
precision was considered acceptable assay performance.
Data was analyzed with ThemoFisher XCalibur software.

| Structure (SMILES) | B, ARI concentrations in serum, CYP2D6 IM+PM (Week 10, ESC+ARI arm) | B, ARI concentrations in serum, CYP2D6 IM+PM (Week 16, ESC+ARI arm) | lower DHA, CYP2D6 IM + PMs relative to NMs (Week 10, ESC + ARI) [%] | B, DHA concentrations in serum, CYP2D6 IM+PM (Week 10, ESC+ARI arm) | B, DHA concentrations in serum, CYP2D6 IM+PM (Week 16, ESC+ARI arm) |
| --- | --- | --- | --- | --- | --- |
| O=C1CCc2ccc(OCCCCN3CCN(c4cccc(Cl)c4Cl)CC3)cc2N1 [ARI, Aripiprazole] | -2.48 | 1.54 |  |  |  |
| O=c1ccc2ccc(OCCCCN3CCN(c4cccc(Cl)c4Cl)CC3)cc2[nH]1 [DHA, dehydroaripiprazole] |  |  | 17.4 | -0.99 | -0.47 |
